Test results reported in patent US20180369327A1, “METHOD FOR TREATING OR PREVENTING OSTEOARTHRITIS” (Dong-A University Research Foundation for Industry-Academy …, priority 2017, published 2018).
“Also recorded” adds a separate entry of the source.

What was measured:
STAMP2 [1] = assay: Western blot of STAMP2 protein in articular chondrocytes; type: cell-based, rat; settings: 30 μM cilostazol, 1.5 mM oleate; n=4
Protocol: (§1) Rat articular chondrocytes for primary culture were isolated from knee joint cartilage slices by enzymatic digestion for 1 h with 0.2% type II collagenase (381 units/mg) in DMEM. After the isolated cells were collected by brief centrifugation, they were resuspended in DMEM supplemented with 10% (v/v) FBS, […] streptomycin and 50 units/ml penicillin (Gibco). The cells were plated on culture dishes at a density of 5×10^4 cells/cm^2. The medium was replaced every 2 days, and they reached confluence after approximately 5 days in culture. In each experiment, the cells from three animals were pooled and analyzed three times. FFA were dissolved in absolute ethanol at a concentration of 500 mM and diluted to final concentrations of FFAs with the appropriate concentration of 1% (w/v) FFA-free BSA. Controls were incubated with equal concentrations of FFA-free BSA containing ethanol. […] Cell (2×10^6) were washed twice with ice-cold PBS. Cells were resuspended in lysis buffer [200 ll of icecold solubilizing buffer (300 mM NaCl, 50 mM Tris-Cl (pH 7.6), 0.5% Triton X-100, protease inhibitor cocktail)] and incubated at 4° C. for 30 min. The lysates were centrifuged at 14,000 rpm for 20 min at 4° C. The protein concentrations of the cell lysates were measured with the Bradford protein assay reagent (Bio-Rad). Then, 50 μg of proteins was loaded onto 15 SDS-PAGE. The separated proteins were transferred to nitrocellulose membranes (Amersham Pharmacia Biotech, Piscataway, N.J., USA) and probed with each antibody. Immunostaining with the antibodies was carried out using the Super Signal West Pico enhanced chemiluminescence substrate and detected with LAS-3000PLUS.

STAMP2 [2] = assay: Immunohistochemistry of cartilage, STAMP2-positive cells, HFD-induced OA mouse model; type: in vivo; settings: mice fed HFD, cilostazol 30 mg/kg/day orally 10 weeks; n=10
Protocol: (§2) HFD-induced OA mouse model. Sixty mice were fed a normal chow diet for one week and then mice were fed an HFD or a SD for 25 weeks. Ten mice from each diet were used histologically examine the effect of high fat diet. Forty mice were used to examine the effect of cilostazol. Mice fed a SD or HFD for 15 weeks were orally administered cilostazol at concentrations of 30 mg/kg/day for additional 10 weeks. SD+vehicle mice (n=10) were fed a SD and received DMSO. SD+cilostazol mice (n=10) were fed a SD and received cilostazol. HFD+vehicle mice (n=10) were fed a HFD and received DMSO. HFD+cilostazol mice (n=10) were fed a HFD and received cilostazol. Immunohistochemical observation and analysis. Tissue sections were incubated in 1:70-diluted goat serum solution for 30 minutes at room temperature, and then for 2 hours with 1:100-diluted primary antibody at room temperature. Next, sections were incubated with secondary antibody for 1 hour at 37° C. and developed using ABC complex. […] Histological images were observed and analyzed using a Aperio ScanScope® CS system. Total numbers of positive for […]27 and STAMP2 in four fields per animal were counted by an observer blinded to the experiment and the percentage of positive cells were calculated.

[3] = test system: lipid droplets (LD) in rat articular chondrocytes; assay: Lipid droplet staining (Nile red, BODIPY), confocal microscopy and quantification; type: cell-based
Protocol: Rat articular chondrocytes for primary culture were isolated from knee joint cartilage slices by enzymatic digestion for 1 h with 0.2% type II collagenase (381 units/mg) in DMEM. After the isolated cells were collected by brief centrifugation, they were resuspended in DMEM supplemented with 10% (v/v) FBS, […] streptomycin and 50 units/ml penicillin (Gibco). The cells were plated on culture dishes at a density of 5×10^4 cells/cm^2. The medium was replaced every 2 days, and they reached confluence after approximately 5 days in culture. In each experiment, the cells from three animals were pooled and analyzed three times. FFA were dissolved in absolute ethanol at a concentration of 500 mM and diluted to final concentrations of FFAs with the appropriate concentration of 1% (w/v) FFA-free BSA. Controls were incubated with equal concentrations of FFA-free BSA containing ethanol. […] Cells cultured on a coverslip were incubated with diluted Nile red or BODIPY 493/503. Some sections were double-labelled with TUNEL and BODIPY 493/503 and counterstained with Hoechst 33342. Fluorescence images were observed and analyzed using a Zeiss LSM 510 laser-scanning confocal microscope (Goettingen, Germany). Twenty cells from each experiment were observed and auantification of fluorescence intensity of the confocal images were obtained with the use of ImageJ software. Fluorescence intensity was expressed as AU.

[4] = test system: rat articular chondrocytes; assay: DNA hypoploidy / cell cycle analysis by flow cytometry (apoptosis); type: cell-based; settings: 30 μM cilostazol, 1.5 mM oleate; n=4
Protocol: Rat articular chondrocytes for primary culture were isolated from knee joint cartilage slices by enzymatic digestion for 1 h with 0.2% type II collagenase (381 units/mg) in DMEM. After the isolated cells were collected by brief centrifugation, they were resuspended in DMEM supplemented with 10% (v/v) FBS, […] streptomycin and 50 units/ml penicillin (Gibco). The cells were plated on culture dishes at a density of 5×10^4 cells/cm^2. The medium was replaced every 2 days, and they reached confluence after approximately 5 days in culture. In each experiment, the cells from three animals were pooled and analyzed three times. FFA were dissolved in absolute ethanol at a concentration of 500 mM and diluted to final concentrations of FFAs with the appropriate concentration of 1% (w/v) FFA-free BSA. Controls were incubated with equal concentrations of FFA-free BSA containing ethanol. […] Cells were washed twice with PBS, and fixed with cold 70% ethanol at 4° C. overnight. The fixed cells were pelleted and ethanol was removed by washing twice with PBS containing 1% bovine serum albumin (BSA). The cells were resuspended in 1 ml of PBS containing 11 Kunitz U/ml RNase A, incubated at 4° C. for 30 min and washed once with BSAPBS. Cells were resuspended in PI solution (50 μg/ml) and incubated at 37° C. for 30 min in dark. […]

PKCK2 = assay: Immunohistochemistry of cartilage, PKCK2-positive cells, HFD-induced OA mouse model; type: in vivo; settings: mice fed HFD, cilostazol 30 mg/kg/day orally 10 weeks; n=10
Protocol: as §2

FSP27 = assay: Western blot of FSP27 protein in articular chondrocytes; type: cell-based, rat; settings: 30 μM cilostazol, 1.5 mM oleate; n=4
Protocol: as §1

O=C1CCc2cc(OCCCCc3nnnn3C3CCCCC3)ccc2N1 [cilostazol]
effect on oleate-induced downregulation of STAMP2 (STAMP2 [1]): completely reversed the downregulation of STAMP2 induced by oleate; also recorded: reversed the 1.5 mM oleate (O)-induced downregulation of STAMP2
population of STAMP2-positive cells (STAMP2 [2]): significantly increased
LD size and LD accumulation ([3]; 30 μM cilostazol, 1.5 mM oleate): increases LD size and LD accumulation
LD accumulation ([3]; cilostazol in cells treated with 0.4 mM oleate and 1.6 mM palmitate): augmented the LD accumulation
total LD volume ([3]; cilostazol versus 1.5 mM oleate alone, n=4): significantly increased
oleate-induced LD fragmentation ([3]; cilostazol, 1.5 mM oleate, n=4): prevented oleate-induced LD fragmentation
effect on oleate-induced apoptosis (histograms) [4]: prevented 1.5 mM oleate-induced apoptosis
population of PKCK2-positive cells (PKCK2): significantly increased
effect on oleate-induced downregulation of FSP27 (FSP27): prevented the 1.5 mM oleate-induced downregulation of FSP27
